Patent US9855273B2, “Combination therapy for MDS” (priority 2013, dated 2018)
Where two headings read alike, the source gives them in different places.

Tests used:
BCL2 = conditions: 10 μM
Experimental: (§1) Total protein lysates were obtained from cells by lysing the samples in cold RIPA buffer (50 mM Tris-HCl, 150 mM NaCl, 1 mM EDTA, 1% Triton X-100 and 0.1% SDS), in the presence of PMSF, sodium orthovanadate, protease and phosphatase inhibitors. After being re-suspended in RIPA cells were briefly sonicated. Protein concentration was evaluated by a BCA assay (Pierce). For immunoprecipitation, TRAF6 or IRAK1 antibodies (2 μg) were added to cell lysates (10 mg) for 3 h at 4° C. and captured by the addition of Protein A/G Plus beads (sc-2003; Santa Cruz) as described before (Starczynowski et al., 2011). The immune complexes were washed with lysis buffer followed by the addition of SDS sample buffer. The bound proteins were separated by SDS-polyacrylamide gel electrophoresis, transferred to nitrocellulose membranes, and analyzed by immunoblotting. Western blot analysis was performed with the following antibodies: TRAF6 (sc-7221; Santa Cruz), IRAK1 (sc-7883; Santa Cruz), ubiquitin (sc-8017; Santa Cruz), IKKβ (2370; Cell Signaling Technology), GAPDH (5174; Cell Signaling Technology), p38 MAPK (9212; Cell Signaling Technology), phopho-p38 MAPK (4631; Cell Signaling Technology), phospho-IKKα/β (2697; Cell Signaling Technology), phospho-IRAK1 (S376) (PAB0497; Abnova), phospho-IRAK1 (T209) (A1074; AssaybioTech), phospho-ERK (4695; Cell Signaling Technology), Lck (2752; Cell Signaling Technology), phospho-Lck (Tyr505) (2751; Cell Signaling Technology), IRAK4 (4363; Cell Signaling Technology), phospho-IRAK4 (Thr345/Ser346) (7652; Cell Signaling Technology), Src (2102; Cell Signaling Technology), Phospho-Src (Tyr416) (2113; Cell Signaling Technology), BCL-2 (2870; Cell Signaling Technology) and Actin (4968; Cell Signaling Technology).

IRAK1 (pIRAK1T209) = IRAK1 (pIRAK1T209) (Homo sapiens, UniProt P51617)
IRAK1 (pIRAK1T209), sequence (P51617 whole entry): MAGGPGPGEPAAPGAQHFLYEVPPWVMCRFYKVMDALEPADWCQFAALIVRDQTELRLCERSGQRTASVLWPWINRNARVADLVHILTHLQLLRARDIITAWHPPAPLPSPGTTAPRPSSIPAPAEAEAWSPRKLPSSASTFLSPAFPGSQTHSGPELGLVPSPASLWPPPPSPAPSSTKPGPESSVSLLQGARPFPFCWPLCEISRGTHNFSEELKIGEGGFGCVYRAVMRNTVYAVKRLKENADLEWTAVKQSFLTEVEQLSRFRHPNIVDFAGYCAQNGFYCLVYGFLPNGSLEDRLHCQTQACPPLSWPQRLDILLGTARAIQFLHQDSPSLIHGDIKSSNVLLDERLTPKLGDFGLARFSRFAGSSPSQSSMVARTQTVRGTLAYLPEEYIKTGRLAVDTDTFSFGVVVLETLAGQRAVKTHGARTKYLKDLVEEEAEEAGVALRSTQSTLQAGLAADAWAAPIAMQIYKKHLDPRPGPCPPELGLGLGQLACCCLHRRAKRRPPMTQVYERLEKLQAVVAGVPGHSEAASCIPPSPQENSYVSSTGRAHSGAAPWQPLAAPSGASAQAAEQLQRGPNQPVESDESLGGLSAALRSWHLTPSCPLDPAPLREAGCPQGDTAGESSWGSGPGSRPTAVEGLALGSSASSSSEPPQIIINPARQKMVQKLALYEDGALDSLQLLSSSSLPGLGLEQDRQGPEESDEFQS
Experimental: as §1

TRAF6/NF-κB signaling = tested on: TRAF6/NF-κB signaling
Experimental: as §1

[1] = tested on: normal cord blood-derived CD34+ cells; test: Growth and viability of normal CD34+ cells; format: cell-based, human; conditions: even high doses
Experimental: Acute myeloid leukemic cell lines, HL60, THP1, and TF-1 were purchased from the American Type Culture Collection. MOLM13 were purchased from AddexBio. The myelodysplastic cell line, MDS-L, was provided by Dr. Kaoru Tohyama (Kawasaki Medical School, Okayama, Japan) (Matsuoka et al., 2010). Cell-lines were cultured in RPMI 1640 medium with 10% FBS and 1% penicillin-streptomycin. Additionally, both the MDSL and TF-1 cell lines were cultured in the presence of 10 ng/mL human recombinant IL-3 (Stemcell Technologies). […] Human CD34+ UCB cells and primary MDS/AML cells were maintained in StemSpan Serum-Free Expansion Media (Stemcell Technologies) supplemented with 10 ng/mL of recombinant human stem cell factor (SCF), Flt3 ligand (Flt3L), thrombopoietin (TPO), IL-3, and IL-6 (Stemcell Technologies).

MDS/AML cell lines [2] = test: AnnexinV apoptosis staining of MDS/AML cell lines; format: cell-based, human; conditions: all cell lines, 48 hrs of treatment, 10 μM
Experimental: Cells were stained after either drug treatment or lentiviral transduction with Annexin V (eBioscience) and propidium iodide (Sigma-Aldrich), or 7AAD (eBioscience) according to the manufacturer's instructions. Analysis was performed using BD FACSCalibur or FACSCanto flow cytometer with either CellQuest or Diva software.

MDS/AML cell lines [3] = test: Colony formation in methylcellulose, MDS/AML cell lines; format: cell-based, human
Experimental: (§2) The effect of IRAK-Inh on leukemic progenitor function was evaluated in methylcellulose containing IRAK-Inh. […] As an alternative approach, MDS/AML cells were pre-treated with IRAK-Inh for 24 hours and then plated in methylcellulose.

MDSL cells = test: MDSL xenograft, in vivo i.p. delivery after engraftment, NSG mice
Experimental: Xenograftment of NOD/SCID-IL2Rγ(NSG) and NSG-hSCF/hGM-CSF/hIL3 (NSGS) MDSL cells (1×10^6-5×10^6) were injected into the tail veins of 8-week old sublethally irradiated ([…]) NSG or NSG animals engineered to express human SCF, GM-CSF, and IL3 (NSGS) as previously described (Wunderlich et al., 2010). Mice were monitored by performing complete blood counts (Drew Hemavet 950FS). Following red cell lysis, human MDSL cells were identified by hCD45-FITC staining. In vivo delivery of IRAK-Inh approach is adapted from previous reports (Yang et al., 2011): IRAK-Inh was diluted in DMSO (5 mM) and further dissolved in sterile phosphate buffered saline (PBS; pH 7.2). Animals were injected i.p. with 2.12 mg/kg IRAK-Inh 3× weekly.
To determine whether IRAK-Inh can delay human MDS-like disease in vivo, MDSL were pre-treated with IRAK-Inh (10 μM) for 24 hrs in vitro and subsequently injected intravenously (i.v.) into NSG (5×10^6 cells) and NSGS (1×10^6 cells) recipient mice (FIG. 4A). This approach permitted us to evaluate the cell autonomous effect of IRAK-Inh on MDS cell viability and engraftment without altering endogenous IRAK1 function in the mouse. […] In addition, the human MDSL graft was reduced from 8% to 2% (FIG. 4D). Morphological assessment confirmed normal RBC and reduced MDS grafts in the peripheral blood and marrow of mice transplanted with IRAK-Inh-treated MDSL cells (FIG. 4E). […]

IRAK1 = IRAK1 (Homo sapiens, UniProt P51617); conditions: Powers et al., 2006, cited from earlier work
IRAK1, sequence (P51617 whole entry, species assumed): as the sequence (P51617 whole entry) above

normal CD34+ cells = test: Colony formation in methylcellulose, normal CD34+ cells
Experimental: as §2

With `O=C(Nc1nc2ccccc2n1CCN1CCOCC1)c1cccc([N+](=O)[O-])c1` [IRAK-Inh, N-(2-morpholinylethyl)-2-(3-nitrobenzoylamido)-benzimidazole] the BCL2 expression (BCL2) was “increased in several of the cell lines examined”, the “phosphorylated IRAK1 reduced by” value (IRAK1 (pIRAK1T209); 10 μM, 24 hrs, cell lines and patient marrow cells) was ~70% and the “phosphorylation and K63-linked ubiquitination of immunoprecipitated IRAK1” value (IRAK1 (pIRAK1T209); THP1, 10 μM, 24 hrs) was “reduced phosphorylation and K63-linked ubiquitination”. The “pIRAK1T209 inhibited by” value (IRAK1 (pIRAK1T209); cells with lentiviral IRAK1 or TRAF6 overexpression) was ~50%, the “kinases with structural homology to IRAK1 targeted in cells” value (IRAK1 (pIRAK1T209); malignant myeloid cells, IRAK1, IRAK4, Src, Lck immunoblots) was “only IRAK1 is a target” and the “p100/p52 processing (non-canonical NF-κB)” value (TRAF6/NF-κB signaling; 10 μM for 24 hrs) was “completely blocked”. The pIKKα/IKKβ (TRAF6/NF-κB signaling; 10 μM for 24 hrs, vector- and TRAF6-expressing cells) was “reduced pIKKα/IKKβ”, the “polyubiquitinated TRAF6” value (TRAF6/NF-κB signaling; THP1, 10 μM, 24 hrs) was “reduced polyubiquitinated TRAF6” and the “proliferation of normal CD34+ cells” value [1] was “not affected”. For the same compound, the apoptosis (MDS/AML cell lines [2]) was “modest increase in apoptosis”, the “colony formation, methylcellulose containing inhibitor” value (MDS/AML cell lines [3]; all MDS/AML cells, continuous treatment) was “significantly fewer colonies” and the “colony formation after transient exposure” value (MDS/AML cell lines [3]; pre-treated 24 hr, 10 μM, then plated) was “significantly fewer colonies”. For the same compound, the “HCT and Hb levels” value (MDSL cells; 2.12 mg/kg i.p. 3×/week from day 6) was “maintained HCT and Hb levels”, the “human graft in peripheral blood (hCD45)” value (MDSL cells; within ~7 days of receiving 2.12 mg/kg i.p. 3×/week) was “reduced human graft in the peripheral blood” and the IC50 (IRAK1; read-out: IC50 IRAK1, FIG. 9A legend) was 300 nM. For the same compound, the IC50 (IRAK1; read-out: IC50 IRAK1 kinase activity, Wang et al., 2009) was 750 nM, the “control CD34+ cell progenitor function” value (normal CD34+ cells) was “did not affect” and the “colony formation, methylcellulose containing inhibitor” value (normal CD34+ cells; normal CD34+) was “equivalent number of colonies”.
